Like-named read-outs stand apart in the source and are kept apart here.
Tests used:
[1] = solubilities of active compounds in solvents; assay type: physicochemical
Description: The flash point of 130° C. is sufficiently high for safe production. Studies with selected fluorinated antiparasitics in triethyl phosphate formulations show good and long-lasting activity against fleas and various ticks on dogs and cats.

[2] = toxicity of triethyl phosphate
[3] = skin compatibility of triethyl phosphate; settings: with rats, dogs and cats
[4] = solvent 83.3% propylene carbonate 16.7% benzyl alcohol

Compound	solubility in 83.3% propylene carbonate 16.7% benzyl alcohol [1, 4]	solubility in propylene carbonate ([1]; solvent propylene carbonate)	solubility in triethyl phosphate ([1]; solvent triethyl phosphate)	toxicity [2]	skin compatibility [3]	solubility in 83.3% propylene carbonate 16.7% benzyl alcohol [1]	solubility in propylene carbonate [1]	solubility in triethyl phosphate [1]
O=C(NC1CC1)c1cc(-c2cnn(-c3c(Cl)cc(C(F)(C(F)(F)F)C(F)(F)F)cc3OC(F)(F)F)c2)cnc1Cl [Compound 1, 2-chloro-5-[1-[2-chloro-4-[1,2,2,2-tetrafluoro-1-(trifluoromethyl)ethyl]-6-(trifluoromethoxy)phenyl]-1H-pyrazol-4-yl]-N-cyclopropyl-3-pyridinecarboxamide]	17% (w/w)	5% (w/w)	44% (w/w)					
O=C(NC1CC1)c1cc(-c2cnn(-c3c(Cl)cc(C(F)(C(F)(F)F)C(F)(F)F)cc3C(F)(F)F)c2)cnc1Cl [Compound 2, 2-chloro-5-[1-[2-chloro-4-[1,2,2,2-tetrafluoro-1-(trifluoromethyl)ethyl]-6-(trifluoromethyl)phenyl]-1H-pyrazol-4-yl]-N-cyclopropyl-3-pyridinecarboxamide]	14% (w/w)	4% (w/w)	40% (w/w)					
CCOP(=O)(OCC)OCC [Triethyl phosphate, triethyl phosphate]				low toxicity	excellent skin compatibility			
N#Cc1nn(-c2c(Cl)cc(C(F)(F)F)cc2Cl)c(N)c1[S+]([O-])C(F)(F)F (centres unmarked) [fipronil]						5% (w/w)	11% (w/w)	36% (w/w)
Cc1cc(C2=NOC(c3cc(Cl)cc(Cl)c3)(C(F)(F)F)C2)ccc1C(=O)NCC(=O)NCC(F)(F)F (centres unmarked) [fluralaner]	13% (w/w)	7% (w/w)	41% (w/w)					
CON=CNC(=O)c1ccc(C2=NOC(c3cc(Cl)cc(Cl)c3)(C(F)(F)F)C2)cc1C (centres unmarked) [fluxametamide]	6% (w/w)	3% (w/w)	20% (w/w)					
N#Cc1nn(-c2c(Cl)cc(C(F)(F)F)cc2Cl)c(NCc2ccccn2)c1SC(F)F [pyriprole]	28% (w/w)	21% (w/w)	49% (w/w)					
Cn1nc(C(F)(F)C(F)(F)F)c(C(F)(F)F)c1-n1cc(-c2ccc(Cl)c(C(=O)NC3(C#N)CC3)c2)cn1 [tigolaner]	20% (w/w)	26% (w/w)	52% (w/w)					

From patent publication US11344532B2, “Topically administrable formulation for the control and prevention of animal parasites” (BAYER ANIMAL HEALTH GMBH, priority 2017, dated 2022)
